Reference: patent publication EP4603105A1, “PHARMACEUTICAL COMPOSITION CONTAINING CYCLIC COMPOUND HAVING SELECTIVE KRAS INHIBITORY EFFECT AGAINST HRAS AND NRAS” (CHUGAI SEIYAKU KABUSHIKI KAISHA, priority 2022, dated 2024)

What was measured:
[1] = tested on: human lung cancer strain NCI-H441; format: cell-based
How it was run: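 Readout: […] after the ATP-based reagent. Compound: serial dilutions in dimethyl sulfoxide.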

[2] = biological target: HRAS wild-type protein (Homo sapiens, UniProt P01112); test: Binding to HRAS by surface plasmon resonance (SPR), KD and KD ratio to KRAS; conditions: ratio of KD for HRAS wild-type protein to KD for KRAS
How it was run: (§1)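 Affinity is measured by surface plasmon resonance at 30°C against captured, GDP-loaded RAS carrying a biotinylated Avi tag. Compounds are titrated by single-cycle kinetics, and KD comes from a 1:1 fit.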

[3] = biological target: GDP-bound NRAS wild-type protein (Homo sapiens, UniProt P01111); test: Binding to NRAS by surface plasmon resonance (SPR), KD and KD ratio to KRAS; conditions: ratio of KD for GDP-bound NRAS wild-type protein to KD for KRAS
How it was run: as §1

Chain of GDP-bound NRAS wild-type protein (P01111 whole entry): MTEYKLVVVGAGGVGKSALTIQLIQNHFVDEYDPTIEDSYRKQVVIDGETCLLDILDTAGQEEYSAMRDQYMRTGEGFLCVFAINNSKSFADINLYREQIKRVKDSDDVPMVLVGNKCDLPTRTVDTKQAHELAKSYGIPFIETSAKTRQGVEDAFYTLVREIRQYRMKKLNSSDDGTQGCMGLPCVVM
Chain of HRAS wild-type protein (P01112 whole entry): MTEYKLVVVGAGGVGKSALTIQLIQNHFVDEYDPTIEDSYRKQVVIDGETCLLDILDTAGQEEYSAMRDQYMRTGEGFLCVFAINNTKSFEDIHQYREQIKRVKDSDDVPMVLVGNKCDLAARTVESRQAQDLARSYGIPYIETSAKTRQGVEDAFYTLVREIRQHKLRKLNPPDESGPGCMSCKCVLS

Row | SMILES | IC50 [1] [nM] | HRAS /KRAS [2] | NRAS /KRAS [3]
1 | CCC(CC)[C@H]1C(=O)N(C)[C@H](C(=O)N(C)C)CC(=O)N(C)[C@@H](COC)C(=O)N[C@@H]([C@@H](C)CC)C(=O)N(C)CC(=O)N(C)[C@H]2C/C=C\CCN(C2=O)[C@@H](Cc2ccc(C(F)(F)F)cc2)C(=O)N(C)CC(=O)N[C@@H](CCc2ccc(Cl)c(Cl)c2)C(=O)N2CCOC[C@H]2C(=O)NC2(CC(C)(C)C2)C(=O)N1C [PP2941] | 104 | A (a compound having 10 or more and less than 20 is denoted as A) | AA (a compound having 20 or more is denoted as AA)
2 | CCC[C@H]1C(=O)N[C@@H]([C@@H](C)CC)C(=O)N(C)CC(=O)N(C)[C@H]2C/C=C\CCN(C2=O)[C@@H](Cc2ccc(C(F)(F)F)cc2)C(=O)N(C)CC(=O)N[C@@H](CCc2cc(Cl)c3sccc3c2)C(=O)N2C[C@H](OCC)C[C@H]2C(=O)NC2(CC(C)(C)C2)C(=O)N(C)[C@@H](C2CCCC2)C(=O)N(C)[C@H](C(=O)N(C)C)CC(=O)N1C [PP2946] | 5.3 | A (a compound having 10 or more and less than 20 is denoted as A) | A (a compound having 10 or more and less than 20 is denoted as A)
3 | CCC[C@H]1C(=O)N[C@@H]([C@@H](C)CC)C(=O)N(C)CC(=O)N(C)[C@H]2C/C=C\CCN(C2=O)[C@@H](Cc2ccc(C)cc2)C(=O)N(C)CC(=O)N[C@@H](CCc2ccc3sc(F)c(C)c3c2)C(=O)N2C[C@H](OCC)C[C@H]2C(=O)NC2(CC(C)(C)C2)C(=O)N(C)[C@@H](C2CCCC2)C(=O)N(C)[C@H](C(=O)N(C)C)CC(=O)N1C [PP2949] | 3.5 | A (a compound having 10 or more and less than 20 is denoted as A) | A (a compound having 10 or more and less than 20 is denoted as A)
4 | CCC[C@H]1C(=O)N[C@@H]([C@@H](C)CC)C(=O)N(C)CC(=O)N(C)[C@H]2C/C=C\CCN(C2=O)[C@@H](Cc2ccc(C(F)(F)F)cc2)C(=O)N(C)CC(=O)N[C@@H](CCc2cc(Cl)c3c(ccn3C)c2)C(=O)N2C[C@H](OCC)C[C@H]2C(=O)NC2(CC(C)(C)C2)C(=O)N(C)[C@@H](C2CCCC2)C(=O)N(C)[C@H](C(=O)N(C)C)CC(=O)N1C [PP2950] | 24.2 | A (a compound having 10 or more and less than 20 is denoted as A) | A (a compound having 10 or more and less than 20 is denoted as A)
5 | CCO[C@@H]1C[C@H]2C(=O)NC3(CC(C)(C)C3)C(=O)N(C)[C@@H](C(CC)CC)C(=O)N(C)[C@H](C(=O)N3CCCCC3)CC(=O)N(C)[C@H]3CCC/C=C/c4ccc(cc4)C[C@@H](C(=O)N(C)CC(=O)N[C@@H](CCc4cc(F)c(C(F)(F)F)c(F)c4)C(=O)N2C1)N1CC/C=C\C[C@@H](C1=O)N(C)C(=O)CN(C)C(=O)[C@H]([C@@H](C)CC)NC3=O [PP2952] | 45 | A (a compound having 10 or more and less than 20 is denoted as A) | AA (a compound having 20 or more is denoted as AA)
6 | CCO[C@@H]1C[C@H]2C(=O)NC3(CCC3)C(=O)N(C)[C@@H](C3CCCC3)C(=O)N(C)[C@H](C(=O)N3CCCCC3)CC(=O)N(C)[C@H]3CCC/C=C/c4ccc(cc4)C[C@@H](C(=O)N(C)CC(=O)N[C@@H](CCc4cc(F)c(C(F)(F)F)c(F)c4)C(=O)N2C1)N1CC/C=C\C[C@@H](C1=O)N(C)C(=O)CN(C1CC1)C(=O)[C@H]([C@@H](C)CC)NC3=O [PP2954] | 16.5 | A (a compound having 10 or more and less than 20 is denoted as A) | A (a compound having 10 or more and less than 20 is denoted as A)
7 | CCO[C@@H]1C[C@H]2C(=O)NC3(CCC3)C(=O)N(C)[C@@H](C(CC)CC)C(=O)N(C)[C@H](C(=O)N3CCCCC3)CC(=O)N(C)[C@H]3CCC/C=C/c4ccc(cc4)C[C@@H](C(=O)N(C)CC(=O)N[C@@H](CCc4cc(F)c(C(F)(F)F)c(F)c4)C(=O)N2C1)N1CC/C=C\C[C@@H](C1=O)N(C)C(=O)CN(C1CC1)C(=O)[C@H]([C@@H](C)CC)NC3=O [PP2956] | 27.8 | A (a compound having 10 or more and less than 20 is denoted as A) | AA (a compound having 20 or more is denoted as AA)
8 | CCO[C@@H]1C[C@H]2C(=O)NC3(CCC3)C(=O)N(C)[C@@H](C(CC)CC)C(=O)N(C)[C@H](C(=O)N3CCCC3)CC(=O)N(C)[C@H]3CCC/C=C/c4ccc(cc4)C[C@@H](C(=O)N(C)CC(=O)N[C@@H](CCc4cc(F)c(C(F)(F)F)c(F)c4)C(=O)N2C1)N1CC/C=C\C[C@@H](C1=O)N(C)C(=O)CN(C1CC1)C(=O)[C@H]([C@@H](C)CC)NC3=O [PP2957] | 4.6 | A (a compound having 10 or more and less than 20 is denoted as A) | AA (a compound having 20 or more is denoted as AA)
9 | CCC(CC)[C@H]1C(=O)N(C)[C@H](C(=O)N(C)C)CC(=O)N(C)[C@@H](COC)C(=O)N[C@@H]([C@@H](C)CC)C(=O)N(C)CC(=O)N(C)[C@H]2C/C=C\CCN(C2=O)[C@@H](Cc2ccc(C(F)(F)F)cc2)C(=O)N(C)CC(=O)N[C@@H](CCc2cc(F)c(C(F)(F)F)c(F)c2)C(=O)N2CC3(CC3)C[C@H]2C(=O)NC2(CC(C)(C)C2)C(=O)N1C [PP2961] | 13.9 | A (a compound having 10 or more and less than 20 is denoted as A) | AA (a compound having 20 or more is denoted as AA)
10 | CCC[C@H]1C(=O)N[C@@H]([C@@H](C)CC)C(=O)N(C)CC(=O)N(C)[C@H]2C/C=C\CCN(C2=O)[C@@H](Cc2ccc(C)cc2)C(=O)N(C)CC(=O)N[C@@H](CCc2ccc(Cl)c(Cl)c2)C(=O)N2CCCCC[C@H]2C(=O)NC2(CC(C)(C)C2)C(=O)N(C)[C@@H](C(CC)CC)C(=O)N(C)[C@H](C(=O)N(C)C)CC(=O)N1C [PP2962] | 39.2 | A (a compound having 10 or more and less than 20 is denoted as A) | AA (a compound having 20 or more is denoted as AA)
11 | CCC(CC)[C@H]1C(=O)N(C)[C@H](C(=O)N(C)C)CC(=O)N(C)[C@@H](COC)C(=O)N[C@@H]([C@@H](C)CC)C(=O)N(C)CC(=O)N(C)[C@H]2C/C=C\CCN(C2=O)[C@@H](Cc2ccc(C)cc2)C(=O)N(C)CC(=O)N[C@@H](CCc2cc(F)c(C(F)(F)F)c(F)c2)C(=O)N2CC3(CC3)C[C@H]2C(=O)NC2(CC(C)(C)C2)C(=O)N1C [PP2963] | 13.4 | A (a compound having 10 or more and less than 20 is denoted as A) | AA (a compound having 20 or more is denoted as AA)
12 | CCC[C@H]1C(=O)N[C@@H]([C@@H](C)CC)C(=O)N(C)CC(=O)N(C)[C@H]2C/C=C\CCN(C2=O)[C@@H](Cc2ccc(C(F)(F)F)cc2)C(=O)N(C)CC(=O)N[C@@H](CCc2ccc(C(F)(F)F)c(Cl)c2)C(=O)N2CCCCC[C@H]2C(=O)NC2(CC(C)(C)C2)C(=O)N(C)[C@@H](C(CC)CC)C(=O)N(C)[C@H](C(=O)N(C)C)CC(=O)N1C [PP2964] | 50.1 | A (a compound having 10 or more and less than 20 is denoted as A) | AA (a compound having 20 or more is denoted as AA)
